Data from patent publication US9242991B2, “Substituted fused heterocycles as c-Met tyrosine kinase inhibitors” (BETTA PHARMACEUTICALS CO., LTD, priority 2010, dated 2016).
“And” between values parts separate entries of the source, which are not always exact repeats. Equal entries are not always repeated.

Columns and labels:
[1] = molecular target: T1, c-Met phosphorylation (pY1349) in NCI-H460 cells (Homo sapiens, UniProt P08581); experiment: HGF Stimulated Met (pY1349) NCI-H460 Cell-based ELISA; conditions: for Mean (Counts − Blanks) / Mean of Activity (% Control) / Activity (% Control) / Counts: 0.2 μM compound; for Mean of Activity (% Control): mean of replicates; for Activity (% Control) / Counts: single replicates
T1 construct: host or cells: NCI-H460
T1 sequence (P08581 25-1390): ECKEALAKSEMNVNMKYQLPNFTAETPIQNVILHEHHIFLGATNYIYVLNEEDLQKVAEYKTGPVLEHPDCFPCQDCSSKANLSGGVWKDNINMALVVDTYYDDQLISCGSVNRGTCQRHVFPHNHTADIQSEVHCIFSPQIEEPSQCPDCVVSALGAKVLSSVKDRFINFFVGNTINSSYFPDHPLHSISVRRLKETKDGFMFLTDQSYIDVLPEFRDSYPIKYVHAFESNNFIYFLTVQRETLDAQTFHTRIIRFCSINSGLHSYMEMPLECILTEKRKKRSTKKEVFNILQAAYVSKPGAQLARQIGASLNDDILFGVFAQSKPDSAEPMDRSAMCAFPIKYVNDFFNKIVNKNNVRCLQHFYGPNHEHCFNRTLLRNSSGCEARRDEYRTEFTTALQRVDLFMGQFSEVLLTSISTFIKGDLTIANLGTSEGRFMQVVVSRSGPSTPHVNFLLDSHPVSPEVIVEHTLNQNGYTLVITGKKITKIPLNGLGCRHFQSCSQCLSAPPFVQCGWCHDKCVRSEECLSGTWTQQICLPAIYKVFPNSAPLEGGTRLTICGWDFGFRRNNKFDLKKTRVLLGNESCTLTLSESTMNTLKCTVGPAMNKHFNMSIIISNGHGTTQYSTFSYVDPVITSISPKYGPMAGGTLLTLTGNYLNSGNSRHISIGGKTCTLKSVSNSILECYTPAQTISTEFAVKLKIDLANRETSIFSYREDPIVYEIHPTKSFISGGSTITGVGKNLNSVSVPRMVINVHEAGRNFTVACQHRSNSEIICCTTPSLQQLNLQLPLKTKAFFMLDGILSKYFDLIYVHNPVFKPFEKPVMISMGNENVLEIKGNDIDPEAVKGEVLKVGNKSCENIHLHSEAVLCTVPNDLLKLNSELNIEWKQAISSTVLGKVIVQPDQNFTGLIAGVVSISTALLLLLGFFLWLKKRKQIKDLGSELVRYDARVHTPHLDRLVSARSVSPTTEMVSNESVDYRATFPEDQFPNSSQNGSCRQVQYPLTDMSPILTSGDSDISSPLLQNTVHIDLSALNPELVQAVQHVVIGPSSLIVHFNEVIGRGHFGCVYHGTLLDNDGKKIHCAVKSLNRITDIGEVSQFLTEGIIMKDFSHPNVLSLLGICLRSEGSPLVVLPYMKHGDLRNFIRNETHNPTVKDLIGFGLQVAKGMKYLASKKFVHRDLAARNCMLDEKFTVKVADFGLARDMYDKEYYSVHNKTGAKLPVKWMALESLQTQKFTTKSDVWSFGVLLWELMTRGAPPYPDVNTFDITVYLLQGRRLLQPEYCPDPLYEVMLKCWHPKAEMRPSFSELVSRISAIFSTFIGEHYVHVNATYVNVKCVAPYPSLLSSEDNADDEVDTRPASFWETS
Protocol: HGF Stimulated Met (pY1349) NCI-H460 Cell-based ELISA NCI-H460 cells (purchased from ATCC) are cultured in RPMI 1640 media (Invitrogen) supplemented with 10% Fetal Bovine Scrum (FBS) and plated (prior to becoming 70% confluent) in 96-well flat-bottom plates at a density of 20,000 cells per well in 80 μL volume. The cells are then incubated overnight in a cell culture incubator (5% CO2, 95% Relative Humidity (RH) and 37° C.) and allowed to attach to the plate. The following morning the cells are washed with 2 volumes of a Reduced Serum Media (RSM) (RPMI 1640 media supplemented with 0.5% FBS). After removal of the last wash, 80 µL of RSM is added to each well of the cell plates. The cell plates are incubated for 2.5 hours in a cell culture incubator, and then dosed with compounds. Compound inhibitors are first solubilized at 10 mM in 100% DMSO and then diluted to 100 μM with 2% DMSO RSM. Subsequently compound serial dilutions (1:3) are prepared over a 100 μM to 0.005 μM range. Cells are dosed with the addition of 20 μL of compound stock to produce a final DMSO concentration of 0.4% and a final compound concentration dose range between 20 and 0.001 μM. After dosing with compounds the cells plates are gently agitated to mix and then allowed to incubate for 30 min in a cell culture incubator. After dose completion, the cells are stimulated with the addition of 20 μL per well of Hepatocyte Growth Factor (HGF) at a final concentration of 100 ng/mL in RSM (all wells except MIN wells are stimulated, MIN wells are dosed with 20 μL RSM). After 10 min incubation in a cell culture incubator, the liquid is removed from the cell plate wells, and the cells are lysed by the addition of 50 μL of ice-cold Meso Scale Discovery® (MSD, Gaithersburg, Md.) IX Lysis Buffer (150 mM NaCl, 20 mM Tris, pH7.5, 1 mM EDTA, 1 mM ethylene glycol tetraacetic acid, and 1% TRITON® X-100) supplemented with Phosphatase I and II and Protease inhibitors (Sigma, St. Louis, Mo.). After lysis at RT for 30 min the lysates are transferred to and captured on a MSD® Multi-Spot 96-well. 4-spot PhosphoMet plate that is BSA-blocked (at 30 mg/mL Block A in IX Tris Wash Buffer) and then washed one time with Tris Wash Buffer. After 2 hours capture (at RT) the lysates are removed from the MSD® plate and the plate is washed with IX Tris Wash Buffer. After blotting, 25 μL of 5 nM Sulfo-Tag Anti-Total Met antibody (detection antibody, MSD® prepared in IX Tris Wash Buffer supplemented with 10 mg/mL BSA and 0.1% Blocker D-R (MSD®)) is added to the wells of the MSD® plate. After 1 hour capture (at RT) the MSD® plate wells are washed with IX Tris Wash Buffer, and then 150 μL of IX Read Buffer T (with surfactant, MSD®) is added. Immediately after the addition of the Read Buffer, the plates are analyzed with a SECTOR 6000 MSD® Imager plate reader. Relative IC50 values are determined using MSD activity units by calculating percent inhibition with respect to on-plate “MIN” and “MAX” controls and then fitting the percent inhibition values and ten-point dose response data to a four-parameter logistic equation. This assay has a Minimum Significant Ratio (MSR) of 2.06.

[2] = molecular target: T2, c-Met phosphorylation in SI 14 tumors (human c-Met) (Homo sapiens, UniProt P08581); experiment: c-Met In Vivo Target Inhibition Assay (SI 14 tumors in nude mice, phosphor-Met ELISA); conditions: oral gavage, read-out: ED50 (dose that produces 50% inhibition in tumor)
T2 construct: host or cells: SI 14 (S114) cells as subcutaneous tumours in athymic nude mice
T2 sequence (P08581 25-1390): as above
Protocol: SI 14 cells (licensed from PHS, over-express both human HGF and human c-Met) are cultured in a growth media (Dulbecco's Modified Eagle Medium) supplemented with 10% fetal calf serum and expanded. Cells are harvested and washed twice with phosphate buffered saline and 2×10^6 cells are mixed with equal volume of BD Matrigel™ matrix (BD Bioscience, Franklin, N.J.), and injected subcutaneous Iy into the flank of nude mice (athymic nude, from Harlan, Indianapolis, Ind.). At day 8 after implant, compounds (formulated in 10% acacia or 1% carboxymethylcellulose/0.5% sodium lauryl sulfate/0.05% antifoam as suspension) are administered to animals by oral gavage at 50 mg/kg. Animals are sacrificed at 2 hours post dose, and tumors are harvested and stored frozen until needed.
Frozen tumors are pulverized using motar-pastel. The pulverized tissues are transferred to a tube containing Lysing Matrix D beads (MP Biomedicals, Solon, Ohio) and 600 μL lysis buffer (RIPA buffer, containing 50 mM Tris-HCl, pH7.4, 150 mM NaCl, 1% NP-40, 0.5% sodium deoxycholate, 0.1% SDS, from Boston Bioproducts). A FastPrep® Cell Disrupter (MP Biomedicals) is used to disrupt the tissue and lyse the cells. […] Protein concentration is determined by Bradford method. Tumor lysates are loaded onto MSD® phosphor-Met ELISA plates and phosphor-c-Met level is determined using the same protocol as H460 cell-based ELISA. […]

[3] = test system: U87MG tumors; experiment: Xenograft tumor model, U87MG; type: in vivo, human; conditions: BID×35, athymic nude mice
Protocol: (§1) Human glioblastoma cells U87MG, human gastric cancer cells MKN45, human non small cell lung cancer cells H441, and human renal carcinoma cells Caki-1 are expanded in culture, harvested, and injected subcutaneous Iy onto the rear flank of athymic nude mice. Testing compound is prepared in an appropriate vehicle and is administered by oral gavage when tumors are established (7-21 days after implant). Tumor response is determined by tumor volume measurement performed twice a week during the course of treatment. Tumor volume inhibition (% growth inhibition) is calculated by comparing treated groups to a vehicle control group. Body weight is taken as a general measurement of toxicity. […] At 60 mg/kg dose (PO, BID×35), 82% growth inhibition is achieved. At 120 mg/kg dose (PO, BID×35), 92% growth inhibition reaches.

[4] = test system: U87MG, MKN45, H441 and Caki-1 tumors; experiment: Xenograft Tumor Models (U87MG, MKN45, H441, Caki-1); type: in vivo, human; conditions: oral gavage, athymic nude mice
Protocol: as §1

Row | SMILES | Mean (Counts − Blanks) [1] | Mean of Activity (% Control) [1] | Activity (% Control) [1] | Counts [1] | IC50 ([1]; NCI-H460 cells, HGF 100 ng/mL, Example 1 value is average of n=6, read-out: IC50 (inhibition of c-Met phosphorylation in cells)) | ED50 [2] | growth inhibition of U87MG tumors ([3]; 30 mg/kg PO) | growth inhibition of U87MG tumors ([3]; 60 mg/kg PO) | growth inhibition of U87MG tumors ([3]; 120 mg/kg PO) | anti-tumor activity in xenograft models [4] | melting point | Activity (% Control) ([1]; 0.2 µM)
1 | O=C(Nc1ccc(Oc2ncnc3cc4c(cc23)OCCOCCOCCO4)c(F)c1)c1c[nH]cc(-c2ccc(F)cc2)c1=O [Example 1, 5-(4-Fluoro-phenyl)-4-oxo-1,4-dihydro-pyridine-3-carboxylic acid [3-fluoro-4-(7,8,10,11,13,14-hexahydro-6,9,12,15-tetraoxa-1,3-diaza-cyclododeca[b]naphthalen-4-yloxy)-phenyl]-amide] | 50 | 0 % Control | 0 % Control | 1008 and 895 | 35.2 nM | 2.9 mg/kg | 59% | 82% | 92% | excellent dose dependent anti-tumor activity | 188 to 190 °C | –
2 | Cn1c(Nc2ccc(F)cc2)ncc(-c2ccc(Oc3ncnc4cc5c(cc34)OCCOCCOCCO5)cn2)c1=O [Example 6, 2-(4-Fluoro-phenylamino)-5-[5-(7,8,10,11,13,14-hexahydro-6,9,12,15-tetraoxa-1,3-diaza-cyclododeca[b]naphthalen-4-yloxy)-pyridin-2-yl]-3-methyl-3H-pyrimidin-4-one] | 29068 | 25 % Control | – | 30847 and 29093 | – | – | – | – | – | – | – | 29 % Control and 21 % Control
3 | Cn1c(Nc2ccc(F)cc2)ncc(-c2ccc(Oc3ncnc4cc5c(cc34)OC(F)(F)O5)cn2)c1=O [Example 8, 5-[5-(2,2-Difluoro-[1,3]dioxolo[4,5-g]quinazolin-8-yloxy)-pyridin-2-yl]-2-(4-fluoro-phenylamino)-3-methyl-3H-pyrimidin-4-one] | 28728 | 24 % Control | – | 30429 and 28830 | – | – | – | – | – | – | – | 27 % Control and 20 % Control
4 | O=C(Nc1ccc(Oc2ncnc3cc4c(cc23)OCO4)c(F)c1)c1c[nH]cc(-c2ccc(F)cc2)c1=O [Example 9, 5-(4-Fluoro-phenyl)-4-oxo-1,4-dihydro-pyridine-3-carboxylic acid [4-([1,3]dioxolo[4,5-g]quinazolin-8-yloxy)-3-fluoro-phenyl]-amide] | 27649 | 19 % Control | – | 28364 and 28738 | – | – | – | – | – | – | – | 18 % Control and 20 % Control
5 | O=C(Nc1ccc(Oc2ccnc3cc4c(cc23)OCCOCCOCCO4)c(F)c1)c1c[nH]cc(-c2ccc(F)cc2)c1=O [Example 10, 5-(4-Fluoro-phenyl)-4-oxo-1,4-dihydro-pyridine-3-carboxylic acid [3-fluoro-4-(7,8,10,11,13,14-hexahydro-6,9,12,15-tetraoxa-1-aza-cyclododeca[b]naphthalen-4-yloxy)-phenyl]-amide] | 28866 | 25 % Control | – | 30524 and 29012 | – | – | – | – | – | – | 188 to 190 °C | 28 % Control and 21 % Control
6 | O=C(Nc1ccc(Oc2ccnc3cc4c(cc23)OCCOCCOCCO4)c(F)c1)c1cccn(-c2ccc(F)cc2)c1=O [Example 11, 1-(4-Fluoro-phenyl)-2-oxo-1,2-dihydro-pyridine-3-carboxylic acid [3-fluoro-4-(7,8,10,11,13,14-hexahydro-6,9,12,15-tetraoxa-1-aza-cyclododeca[b]naphthalen-4-yloxy)-phenyl]-amide] | 31407 | 35 % Control | – | 32582 and 32035 | – | – | – | – | – | – | – | 36 % Control and 34 % Control
7 | Cn1c(Nc2ccc(F)cc2)ncc(-c2ccc(Oc3ncnc4cc5c(cc34)OCCCO5)cn2)c1=O [Example 20, 5-[5-(8,9-Dihydro-7H-6,10-dioxa-1,3-diaza-cyclohepta[b]naphthalen-4-yloxy)-pyridin-2-yl]-2-(4-fluoro-phenylamino)-3-methyl-3H-pyrimidin-4-one] | 32073 | 39 % Control | – | 34234 and 31716 | – | – | – | – | – | – | – | 44 % Control and 33 % Control
8 | CN1CCOc2cc3ncnc(Oc4ccc(-c5cnc(Nc6ccc(F)cc6)n(C)c5=O)nc4)c3cc2OCC1 [Example 21, 2-(4-Fluoro-phenylamino)-3-methyl-5-[5-(9-methyl-8,9,10,11-tetrahydro-7H-6,12-dioxa-1,3,9-triaza-cyclonona[b]naphthalen-4-yloxy)-pyridin-2-yl]-3H-pyrimidin-4-one] | 29384 | 27 % Control | – | 31741 and 28830 | – | – | – | – | – | – | – | 33 % Control and 20 % Control
9 | Cn1c(Nc2ccccc2)ncc(-c2ccc(Oc3ccnc4cc5c(cc34)OC(F)(F)O5)cn2)c1=O [Example 28, 5-[5-(2,2-Difluoro-[1,3]dioxolo[4,5-g]quinolin-8-yloxy)-pyridin-2-yl]-2-(phenylamino)-3-methyl-3H-pyrimidin-4-one] | 30 | 1 % Control | – | 1070 and 793 | – | – | – | – | – | – | – | 1 % Control and 0 % Control
10 | Cn1c(Nc2ccccc2)ncc(-c2ccc(Oc3ccnc4cc5c(cc34)OCCOCCOCCOCCOCCO5)cn2)c1=O [Example 31, 5-[5-(2,5,8,11,14,17-Hexaoxa-21-aza-tricyclo[16.8.0.020,25]hexacosa-1(18), 19,21,23,25-pentaen-24-yloxy)-pyridin-2-yl]-3-methyl-2-phenylamino-3 H-pyrimidin-4-one] | 17936 | 37 % Control | – | 20248 and 17427 | – | – | – | – | – | – | – | 43 % Control and 31 % Control
